System: genes predictive for the anti-inflammatory macrolide effect
Test: Genes statistically predictive of Clari response: differentially expressed with Clari but not the inactive macrolides MAA or Josa (Appendix E)
Assay type: cell-based
Source text: In the case of the above-mentioned (i) related to arachidonic acid biosynthesis, specifically, methods of the embodiment involve assaying whether a test macrolide alters biosynthesis of arachidonic acid, alters the expression or activities of enzymes involved in the biosynthesis or activation of arachidonic acid (e.g., arachidonic acid CoA synthetase, delta-6 desaturase, fatty acid elongase, and delta-5 desaturase, AA-related genes in Tables 2 and 3), or alters the expression of genes identified as predictive for the anti-inflammatory macrolide effect (Appendix E). Assays in which arachidonic acid or gene expression or enzymatic activity is detected can be carried out after contacting a cell with a test macrolide. Any cell line that secretes prostaglandin or produces arachidonic acid can be used. Epithelial and macrophages lines (e.g., A549 or THP-1) are suitable for this purpose; other cell lines can be identified by carrying out assays such as those described in the specific Examples, below. Alternatively, screening assays can be carried out after adding a test macrolide to an in vitro cell system (e.g., a cellular extract or liver microsome preparation) or an in vitro enzyme assay system.

## CC[C@H]1OC(=O)[C@H](C)[C@@H](O[C@H]2C[C@@](C)(OC)[C@@H](O)[C@H](C)O2)[C@H](C)[C@@H](O[C@@H]2O[C@H](C)C[C@H](N(C)C)[C@H]2O)[C@](C)(OC)C[C@@H](C)C(=O)[C@H](C)[C@@H](O)[C@]1(C)O [clarithromycin]
SpotID 49757, MAA and Josa vs. Clari
  group mean, gene DDOST: 1.08
SpotID 49761, MAA and Josa vs. Clari
  group mean, gene BCL2L2: 1.01
SpotID 49767, MAA and Josa vs. Clari
  group mean, gene AD022: 1.12
SpotID 49767, pooled group mean
  mean group, AD022: 1.10
SpotID 49781, MAA and Josa vs. Clari
  group mean, gene P4HB: 1.10
SpotID 49787, MAA and Josa vs. Clari
  group mean, gene CYC1: 0.90
SpotID 49787, pooled group mean
  mean group, CYC1: 0.94
SpotID 49794, MAA and Josa vs. Clari
  group mean, gene BCL2L2: 1.01
SpotID 49800, pooled group mean
  mean group, AD022: 1.09
SpotID 49815, MAA and Josa vs. Clari
  group mean, gene CDKN2C: 0.90
SpotID 49820, MAA and Josa vs. Clari
  group mean, gene CYC1: 0.90
SpotID 49882, MAA and Josa vs. Clari
  group mean, gene LAMP2: 1.17
SpotID 49915, MAA and Josa vs. Clari
  group mean, gene ATP2B4: 1.03
SpotID 49915, pooled group mean
  mean group, ATP2B4: 1.06
SpotID 49922, MAA and Josa vs. Clari
  group mean, gene DHCR24: 1.27
SpotID 49930, MAA and Josa vs. Clari
  group mean, gene KIAA0169: 0.95
SpotID 49947, pooled group mean
  mean group, RFC1: 0.93
SpotID 49967, MAA and Josa vs. Clari
  group mean, gene CCNE2: 0.82
SpotID 49981, MAA and Josa vs. Clari
  group mean, gene BMP6: 1.10
SpotID 49989, MAA and Josa vs. Clari
  group mean, gene VTN: 0.90
SpotID 49990, MAA and Josa vs. Clari
  group mean, gene SRC: 1.17
SpotID 50011, MAA and Josa vs. Clari
  group mean, gene NFYC: 0.95
SpotID 50022, pooled group mean
  mean group, HIF1A: 0.93
SpotID 50049, MAA and Josa vs. Clari
  group mean, gene GNB2L1: 1.10
SpotID 50050, pooled group mean
  mean group, NDUFA2: 1.02
SpotID 50067, MAA and Josa vs. Clari
  group mean, gene MBTPS1: 1.07
SpotID 50079, MAA and Josa vs. Clari
  group mean, gene SCOP: 1.05
SpotID 50079, pooled group mean
  mean group, SCOP: 1.04
SpotID 50084, MAA and Josa vs. Clari
  group mean, gene IDI1: 1.32
SpotID 50085, MAA and Josa vs. Clari
  group mean, SpotID 50085 (gene symbol not given): 1.00
SpotID 50099, MAA and Josa vs. Clari
  group mean, gene CNOT3: 0.84
SpotID 50099, pooled group mean
  mean group, CNOT3: 0.86
SpotID 50103, MAA and Josa vs. Clari
  group mean, gene IRF5: 1.01
SpotID 50135, MAA and Josa vs. Clari
  group mean, gene RRBP1: 1.11
SpotID 50216, MAA and Josa vs. Clari
  group mean, SpotID 50216 (gene symbol not given): 1.05
SpotID 50222, MAA and Josa vs. Clari
  group mean, gene FLJ13868: 1.06
SpotID 50224, MAA and Josa vs. Clari
  group mean, gene HK2: 1.14
SpotID 50267, pooled group mean
  mean group, IL10RB: 1.08
SpotID 50284, MAA and Josa vs. Clari
  group mean, gene UQCR: 1.00
SpotID 50294, MAA and Josa vs. Clari
  group mean, gene TM7SF2: 1.29
SpotID 50302, MAA and Josa vs. Clari
  group mean, gene CDR2: 1.08
SpotID 50307, MAA and Josa vs. Clari
  group mean, gene MAX: 1.10
SpotID 50319, MAA and Josa vs. Clari
  group mean, gene BMP6: 1.15
SpotID 50332, MAA and Josa vs. Clari
  group mean, gene DAD1: 1.20
SpotID 50337, MAA and Josa vs. Clari
  group mean, gene FGFR2: 1.08
SpotID 50342, MAA and Josa vs. Clari
  group mean, gene IKKE: 1.11
SpotID 50342, pooled group mean
  mean group, IKKE: 1.08
SpotID 50349, MAA and Josa vs. Clari
  group mean, gene LOC51295: 0.78
SpotID 50349, pooled group mean
  mean group, LOC51295: 0.84
SpotID 50351, pooled group mean
  mean group, CFL1: 1.00
SpotID 50386, MAA and Josa vs. Clari
  group mean, gene TFAM: 0.91
SpotID 50399, MAA and Josa vs. Clari
  group mean, gene DGCR6L: 1.17
SpotID 50405, MAA and Josa vs. Clari
  group mean, gene CHERP: 0.87
SpotID 50412, MAA and Josa vs. Clari
  group mean, gene AGPAT1: 1.12
SpotID 50421, pooled group mean
  mean group, GOCAP1: 1.10
SpotID 50452, MAA and Josa vs. Clari
  group mean, gene SIGIRR: 1.10
SpotID 50464, MAA and Josa vs. Clari
  group mean, gene MMP15: 1.10
SpotID 50474, MAA and Josa vs. Clari
  group mean, gene CEBPA: 1.29
SpotID 50511, pooled group mean
  mean group, MGP: 0.98
SpotID 50513, MAA and Josa vs. Clari
  group mean, gene ARHC: 1.02
SpotID 50513, pooled group mean
  mean group, ARHC: 1.00
SpotID 50532, MAA and Josa vs. Clari
  group mean, gene PRKCBP1: 0.94
SpotID 50550, MAA and Josa vs. Clari
  group mean, gene PTPRT: 1.08
SpotID 50584, pooled group mean
  mean group, BN51T: 1.07
SpotID 50590, pooled group mean
  mean group, CKS2: 0.89
SpotID 50591 (gene symbol not given), pooled group mean
  mean group, SpotID 50591: 1.13
SpotID 50591, MAA and Josa vs. Clari
  group mean, SpotID 50591 (gene symbol not given): 1.17
SpotID 50601, pooled group mean
  mean group, SRP19: 1.06
SpotID 50639, MAA and Josa vs. Clari
  group mean, gene PDIR: 1.10
SpotID 50643, MAA and Josa vs. Clari
  group mean, gene PROS1: 1.11
SpotID 50645, pooled group mean
  mean group, BET1: 1.01
SpotID 50654, MAA and Josa vs. Clari
  group mean, gene COPB2: 1.12
SpotID 50659, MAA and Josa vs. Clari
  group mean, gene MAX: 1.10
SpotID 50689, MAA and Josa vs. Clari
  group mean, gene GNB5: 1.19
SpotID 50736, MAA and Josa vs. Clari
  group mean, gene PRKDC: 0.90
SpotID 50736, pooled group mean
  mean group, PRKDC: 0.92
SpotID 50738, MAA and Josa vs. Clari
  group mean, gene AD022: 1.14
SpotID 50738, pooled group mean
  mean group, AD022: 1.10
